# According to article PMC4521981 (Nature methods, 2015):
# What was measured:
# [1] = test system: MBP-SCRIB-4/4 PDZ construct; test: Automated holdup assay, benchmark set; format: binding, human; details: overlaid electropherograms of peptide and biotin flowthroughs
# [2] = test system: MBP-SCRIB-34/4 PDZ tandem construct; test: Automated holdup assay, benchmark set; format: binding, human; details: overlaid electropherograms of peptide and biotin flowthroughs
sequence,measurement,setting,value
GSGAGHETIV [TMFLJ_05],binding strength in holdup,[1],no binding
GSGAGKETLV [NET1_05],binding strength in holdup,[2],moderate binding
